Measurements reported in patent US9198879B2, “Pharmacologically optimized multimodal drug delivery system for nordihydroguiaretic acid (NDGA)” (Napo Pharmaceuticals, Inc., priority 2011, dated 2015).
Entries after “also recorded” stand apart in the source; their conditions may differ.

Tested on: fructose-fed and fat-fed/STZ rat models
Test: NDGA versus metformin at equimolar doses in fructose-fed and fat-fed/STZ rat models
Format: in vivo
Details: equimolar doses of NDGA or metformin
From the text: NDGA has been studied by administering it orally to animals to determine its effectiveness for lowering glucose, free fatty acid (FFA) and triglyceride levels. […] See Example 2 below. […] There was no significant baseline difference between the NDGA and metformin groups.
In one such study, the effects of NDGA and metformin as a control drug for treatment of diabetes were studied in a non-diabetic model of hypertriglyceridemia (fructose-fed) and a non-genetic, (i.e., streptozotocin (STZ) treated) model of diabetes. […] See FIGS. 2 (glucose) and 3 (triglycerides).

SMILES: CN(C)C(=N)N=C(N)N [metformin]
- change in insulin concentrations: without changing insulin concentration; also recorded: without any change in insulin concentrations
- glucose lowering in comparison to the vehicle control: significantly lowered glucose
- triglyceride lowering in comparison to the vehicle control: significantly lowered triglycerides
